Results taken from US8466088B2, “Herbicidal compositions containing benzoylpyrazole compounds” (Ishihara Sangyo Kaisha, Ltd., priority 2007, dated 2013).
Like-named read-outs stand apart in the source and are kept apart here.

How the values were obtained:
various plants = test: Example 1: pot test, foliar treatment, visually observed growth inhibition of other sown plants (Tables 5-1 to 5-137); format: in vivo; settings: Ipomoea, foliar, ivyleaf morningglory 1.5 to 2.1 leaf stage, 14th day after application, read-out: Growth inhibition rate (%) of ivyleaf morningglory, Measured value
Excerpt: When the herbicidal activity in a case where two active ingredients are combined, is larger than the simple sum of the respective herbicidal activities of the two active ingredients (the expected activity), it is called a synergistic effect. The activity expected by the combination of two active ingredients can be calculated as follows (Colby S. R., “Weed”, vol. 15, p. 20-22, 1967). E=α+β−(α×β+100) where
α: growth inhibition rate when treated with x (g/ha) of herbicide X,
β: growth inhibition rate when treated with y (g/ha) of herbicide Y,
E: growth inhibition rate expected when treated with x (g/ha) of herbicide X and y (g/ha) of herbicide Y.
That is, when the actual growth inhibition rate (measured value) is larger than the growth inhibition rate by the above calculation (calculated value), the activity by the combination can be regarded as showing a synergistic effect.
Upland field soil was put into a 1/1,000,000 hectare pot, and seeds of various plants were sown. When the respective plants reached predetermined leaf stage, herbicidal compositions in predetermined amounts were diluted with water in an amount corresponding to 300 L/ha and applied for foliar treatment by a small sprayer.
On the 14th to 28th day after application, the state of growth of the respective plants was visually observed to determine the growth inhibition rate (measured value) in accordance with the following evaluation standard. Further, in accordance with the above Colby's formula, the growth inhibition rate (calculated value) was calculated. In Tables, with respect to the compound A, Compound Nos. in Table 1 or 3 are described, and with respect to other herbicidal compounds, common names are described.

velvetleaf = test: Example 1: pot test, foliar treatment, visually observed growth inhibition of velvetleaf; format: in vivo, Abutilon theophrasti MEDIC.; settings: Abutilon theophrasti, foliar, read-out: Growth inhibition rate (%) of velvetleaf, Measured value
crabgrass = test: Example 1: pot test, foliar treatment, visually observed growth inhibition of crabgrass; format: in vivo; settings: Digitaria sanguinalis, foliar, 3.3 to 4.2 leaf stage, 24th day after application, read-out: Growth inhibition rate (%) of crabgrass, Measured value

CCOCN(C(=O)CCl)c1c(C)cccc1CC [Acetochlor]
0%: inhibition at 100 g/ha (various plants; 100 g/ha) | inhibition at 150 g/ha (various plants; 150 g/ha) | inhibition at 200 g/ha (various plants; 200 g/ha) | inhibition at 150 g/ha (velvetleaf; 2.0 to 2.5 leaf stage, 21st day after application) | inhibition at 150 g/ha (velvetleaf; 3.3 to 4.2 leaf stage, 22nd day after application) | inhibition at 300 g/ha (velvetleaf; 3.3 to 4.2 leaf stage, 22nd day after application, 300 g/ha) | inhibition at 400 g/ha (crabgrass; 400 g/ha) | inhibition at 600 g/ha (crabgrass; 600 g/ha) | inhibition at 800 g/ha (crabgrass; 800 g/ha) | inhibition at 1600 g/ha (crabgrass; 1600 g/ha)
